{
  "source": "patent US9789211B2",
  "about": "“Methods and compositions for positron emission tomography myocardial perfusion imaging” (UNIVERSITY OF SOUTHERN CALIFORNIA, priority 2012, dated 2017)",
  "key": {"[1]": {"settings": "cited from earlier work"}, "[2]": {"settings": "cited from earlier work", "remark": "listed apart in the source"}, "[3]": {"test_system": "H345 lung carcinoma cells", "test": "mitochondrial membrane potential-dependent cellular uptake with CCCP treatment", "format": "cell-based", "settings": "H345 cells incubated 10 min with CCCP before adding tracers", "experimental": "Uptake kinetics of ^64Cu-Sar-TPP and 3H-TPP (standard) may be examined in H345 lung carcinoma cells. In brief, H345 cells will be harvested by trypsinization and washed twice with cold PBS buffer. Cells are counted and re-suspended in loading buffer at a concentration of 2×10^6 cells/mL. The cell suspension (0.5 mL) may be transferred to Eppendorf tubes and incubated at 37° C. for 60 min. An equal volume of loading solution containing 0.5-5 nM ^64Cu-Sar-TPP and 3H-TPP will be added. The sample may be centrifuged (800 rpm, 5 min) to terminate the uptake. Aliquots of the supernatant are then obtained and the remaining solution is aspirated. The radioactivity of the pellet and supernatant is counted together with standard solution ( 1/1,000) in a gamma counter. After completion of gamma counting, scintillation counting are performed after the complete decay of ^64Cu (two weeks). Cell uptake values of ^64Cu-Sar-TPP in H345 cells may be determined over incubation periods of 0.5, 1, 2, 4, and 24 h. […] The mitochondrial membrane potential-dependent cellular uptake of ^64Cu-Sar-TPP will be further assessed using the H345 cells treated with carbonyl cyanide m-chlorophenylhydrazone (CCCP). […] Only the ^64Cu-Sar-TPP probes that are sensitive towards CCCP will be evaluated in future investigation because this experiment supports the tracer uptakes are depend on mitochondria potential as we proposed above."}},
  "data": [
    {"compound": "[C-]#[N+]CC(C)(C)OC.[C-]#[N+]CC(C)(C)OC.[C-]#[N+]CC(C)(C)OC.[C-]#[N+]CC(C)(C)OC.[C-]#[N+]CC(C)(C)OC.[C-]#[N+]CC(C)(C)OC.[Tc]", "note": "[^99mTc-sestamibi]", "values": [
      {"measurement": "log P", "setting": "[1]", "value": 1.1}
    ]},
    {"compound": "^64/62Cu-pyruvaldehyde-bis(N4-methyl-thiosemicarbazone) [[^64/62Cu]-PTSM]", "values": [
      {"measurement": "clearance from the blood pool", "setting": "[2]; association with serum albumin", "value": "clears slowly"},
      {"measurement": "liver uptake", "setting": "[2]; spillover into the inferior wall of myocardial", "value": "high liver uptake"}
    ]},
    {"compound": "N#CC(C#N)=NNc1cccc(Cl)c1", "note": "[CCCP, carbonyl cyanide m-chlorophenylhydrazone]", "values": [
      {"measurement": "cell-associated activity of ^64Cu-Sar-TPP and 3H-TPP", "setting": "[3]", "value": "dose dependent decrease"}
    ]}
  ]
}
